Data as given in patent US7914763B1, “Process and apparatus for preparing manganese thiosulfate (MnTS) solution” (Tessenderlo Kerley, Inc., priority 2010, dated 2011).

Key:
[1] = pH of the compound as Mn plant nutrient source in water; cited from earlier work
[2] = at 25° C.
Source text: Manganese thiosulfate, also referred to herein as “MnTS”, is a liquid source of Mn with up to 20% concentration.

Molecule	respective pH [1]	Mn concentration of saturated solution of MnTS (MnTS prepared by salt exchange of MnSO4 with calcium thiosulfate, evaporated to point of crystal formation, percent by weight) [% Mn]	Solubility of MnTS (saturated solution) (saturated solution, corresponding to measured Mn, percent by weight) [% MnTS]	Maximum solubility of MnTS (solid from evaporation redissolved in aqueous solution at ambient temperature, calculated from Mn concentration)	pH of solution of manganese thiosulfate [2]
O=S(=O)([O-])[O-].[Mn+2] [MnSO4, manganese sulfate]	2.8				
manganese carbonate [MnCO3]	6.4				
manganese thiosulfate [MnTS]		5.85	~17	17-18%	5-6
